In patent US20100129436A1, “SUBTANCES FOR THE PROTECTION OF CELLS AND/OR TISSUES” (priority 2007, published 2010) one finds EC50 data, which are given here for 13 molecules.

The first experiment relates to endothelial cells, e.g. cells of the endothelium of the human umbilical cord vein. The experiment can be described thus: Protection of cultured endothelial cells against cold-induced damage (lactate dehydrogenase release). As to conditions: Homo sapiens, Endothelial cell; cells pre-incubated with test substance, medium replaced, then incubated e.g. 24 hours at 0° C; LDH in supernatant; read-out: EC50 (concentration at which 50% of the release of lactate dehydrogenase is inhibited). Type of experiment: cell-based. As for the experimental part: The active substances are synthesised as described below. The action of the substances on cold-induced damage to cells is quantified in a model system. For this purpose, endothelial cells, e.g. cells of the endothelium of the human umbilical cord vein, are cultured. The cells are incubated with various concentrations of the test substances for variable periods of time and then the medium is replaced by fresh medium without any test substance. Next, the cells are incubated e.g. for 24 hours at 0° C. At the end of the incubation period, the lactate dehydrogenase released is determined in the supernatant of the culture vessels by known methods, this concentration being a measure of cell damage. The effectiveness of the individual compounds is determined by the concentration at which 50% of the release of lactate dehydrogenase is inhibited (EC50).
`CNCC(O)c1ccc(O)c(O)c1` (stereo not shown) [Adrenalin, reference compound]: the EC50 was 600 µM. In the case of `CCCCCCCCCCCC(=O)NCCc1ccc(O)c(O)c1` [N-Dodecanoyl dopamine], the EC50 came to 1.2 ± 0.2 µM. `O=C(CCc1ccccc1)NCCc1ccc(O)c(O)c1` [N-(3-Phenylpropanoyl) dopamine]: the EC50 stood at 9 ± 1 µM. On the same count and under the same terms, as for `NCCc1ccc(O)c(O)c1` [Dopamine, reference compound], the figure is 75 µM; as for `CCCCCCCCCCCCCC(=O)NCCc1ccc(O)c(O)c1` [N-Tetradecanoyl dopamine], 1.3 ± 0.2 µM. On to `CC(CCc1ccc(O)cc1)NCCc1ccc(O)c(O)c1` (stereo not shown) [Dobutamine, reference compound], for which the EC50 is 5 µM. Regarding `CCCCCCCCCC(=O)NCCc1ccc(O)c(O)c1` [N-Decanoyl dopamine], the EC50 came to 0.9 ± 0.2 µM.

Regarding `CCCCCCCC(=O)NCCc1ccc(O)c(O)c1` [N-Octanoyl dopamine], the EC50 came out at 2.1 ± 0.2 µM. Same read-out and setting: as for `NC[C@H](O)c1ccc(O)c(O)c1` [Noradrenalin, reference compound], the figure is 700 µM; as for `Cc1ccc(S(=O)(=O)NCCc2ccc(O)c(O)c2)cc1` [N-(4-Methylphenylsulfonyl) dopamine], 12 ± 1 µM.

The experiment is the same for the next values; noted with them: cells pre-incubated with test substance, medium replaced, then incubated e.g. 24 hours at 0° C; LDH in supernatant; read-out: EC50 (concentration at which 50% of the release of lactate dehydrogenase is inhibited).
With `CCCCCCCCNC(=O)c1cc(O)ccc1O` [2,5-Dihydroxybenzoyl amidooctane], the EC50 came out at 6 ± 1 µM. In the case of `CCCCCCCCNC(=O)c1cccc(O)c1O` [2,3-Dihydroxybenzoyl amidooctane], the EC50 came to 1.2 ± 0.1 µM. Take `CCCCCCCCNC(=O)c1ccc(O)c(O)c1` [3,4-Dihydroxybenzoyl amidooctane]: the EC50 worked out at 2.4 ± 0.2 µM.
